Experimental data from patent publication US6358885B1, “Substituted phenylheterocyclic herbicides” (Mississippi State University, priority 1992, dated 2002).

Assays:
Assay in all cases: Test B preemergence/postemergence greenhouse plant response rating 0 to 10
soybean = assay type: in vivo, Glycine max; settings: for Plant response rating, Soybean: 0 to 10 scale
How it was run: (§1)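 Test chemicals were sprayed onto freshly planted seed and, concurrently, onto young plants between the one and four leaf stage. After a twelve- to sixteen-day greenhouse period, each species was visually compared with untreated controls.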

sugar beet = assay type: in vivo, Beta vulgaris; settings: for Plant response rating, Sugar beet: 0 to 10 scale
How it was run: as §1

cocklebur = assay type: in vivo, Xanthium pensylvanicum; settings: for Plant response rating, Cocklebur: 0 to 10 scale
How it was run: as §1

chickweed = assay type: in vivo, Stellaria media; settings: for Plant response rating, Chickweed: 0 to 10 scale
How it was run: as §1

purple nutsedge = assay type: in vivo, Cyperus rotundus; settings: for Plant response rating, Nutsedge: 0 to 10 scale
How it was run: as §1

bedstraw = assay type: in vivo, Galium aparine; settings: for Plant response rating, Bedstraw: 0 to 10 scale
How it was run: as §1

barley = assay type: in vivo, Hordeum vulgare; settings: for Plant response rating, Barley: 0 to 10 scale
How it was run: as §1

cheatgrass = assay type: in vivo, Bromus secalinus; settings: for Plant response rating, Cheatgrass: 0 to 10 scale
How it was run: as §1

cotton = assay type: in vivo, Gossypium hirsutum; settings: for Plant response rating, Cotton: 0 to 10 scale
How it was run: as §1

wild buckwheat = assay type: in vivo, Polygonum convolvulus; settings: for Plant response rating, Wild buckwheat: 0 to 10 scale
How it was run: as §1

wild oat = assay type: in vivo, Avena fatua; settings: for Plant response rating, Wild oat: 0 to 10 scale
How it was run: as §1

rape = assay type: in vivo, Brassica napus; settings: for Plant response rating, Rape: 0 to 10 scale
How it was run: as §1

sorghum = assay type: in vivo, Sorghum bicolor; settings: for Plant response rating, Sorghum: 0 to 10 scale
How it was run: as §1

crabgrass = assay type: in vivo, Digitaria spp.; settings: for Plant response rating, Crabgrass: 0 to 10 scale
How it was run: as §1

blackgrass = assay type: in vivo, Alopecurus myosuroides; settings: for Plant response rating, Blackgrass: 0 to 10 scale
How it was run: as §1

giant foxtail = assay type: in vivo, Setaria faberii; settings: for Plant response rating, Giant foxtail: 0 to 10 scale
How it was run: as §1

morningglory = assay type: in vivo, Ipomoea hederacea; settings: for Plant response rating, Morningglory: 0 to 10 scale
How it was run: as §1

corn = assay type: in vivo, Zea mays; settings: for Plant response rating, Corn: 0 to 10 scale
How it was run: as §1

rice = assay type: in vivo, Oryza sativa; settings: for Plant response rating, Rice: 0 to 10 scale
How it was run: as §1

lambsquarters = assay type: in vivo, Chenopodium album; settings: for Plant response rating, Lambsquarter: 0 to 10 scale
How it was run: as §1

velvetleaf = assay type: in vivo, Abutilon theophrasti; settings: for Plant response rating, Velvetleaf: 0 to 10 scale
How it was run: as §1

wheat = assay type: in vivo, Triticum aestivum; settings: for Plant response rating, Wheat: 0 to 10 scale
How it was run: as §1

barnyardgrass = assay type: in vivo, Echinochloa crus-galli; settings: for Plant response rating, Barnyardgrass: 0 to 10 scale
How it was run: as §1

## CON=C(C)c1cc(-c2nn3c(c2Cl)CCCC3)c(F)cc1Cl [Compound 82]
soybean; POSTEMERGENCE, Rate 50 g/ha
  Plant response rating, Soybean: 4
soybean; PREEMERGENCE, Rate 50 g/ha
  Plant response rating, Soybean: 0
soybean; PREEMERGENCE, Rate 200 g/ha
  Plant response rating (0 to 10 scale), Soybean: 6
soybean; Rate 200 g/ha, POSTEMERGENCE
  Plant response rating, Soybean: 6
Sugar beet; POSTEMERGENCE, Rate 50 g/ha
  Plant response rating, Sugar beet: 10
Sugar beet; PREEMERGENCE, Rate 50 g/ha
  Plant response rating, Sugar beet: 8
Sugar beet; PREEMERGENCE, Rate 200 g/ha
  Plant response rating (0 to 10 scale), Sugar beet: 10
Sugar beet; Rate 200 g/ha, POSTEMERGENCE
  Plant response rating, Sugar beet: 10
cocklebur; POSTEMERGENCE, Rate 50 g/ha
  Plant response rating, Cocklebur: 7
cocklebur; PREEMERGENCE, Rate 50 g/ha
  Plant response rating, Cocklebur: 0
cocklebur; PREEMERGENCE, Rate 200 g/ha
  Plant response rating (0 to 10 scale), Cocklebur: 0
cocklebur; Rate 200 g/ha, POSTEMERGENCE
  Plant response rating, Cocklebur: 8
chickweed; POSTEMERGENCE, Rate 50 g/ha
  Plant response rating, Chickweed: 2
chickweed; PREEMERGENCE, Rate 50 g/ha
  Plant response rating, Chickweed: 6
chickweed; PREEMERGENCE, Rate 200 g/ha
  Plant response rating (0 to 10 scale), Chickweed: 0
chickweed; Rate 200 g/ha, POSTEMERGENCE
  Plant response rating, Chickweed: 3
Purple nutsedge; POSTEMERGENCE, Rate 50 g/ha
  Plant response rating, Nutsedge: 2
Purple nutsedge; PREEMERGENCE, Rate 50 g/ha
  Plant response rating, Nutsedge: 0
Purple nutsedge; PREEMERGENCE, Rate 200 g/ha
  Plant response rating (0 to 10 scale), Nutsedge: 0
Purple nutsedge; Rate 200 g/ha, POSTEMERGENCE
  Plant response rating, Nutsedge: 2
bedstraw; POSTEMERGENCE, Rate 50 g/ha
  Plant response rating, Bedstraw: 8
bedstraw; PREEMERGENCE, Rate 50 g/ha
  Plant response rating, Bedstraw: 0
bedstraw; PREEMERGENCE, Rate 200 g/ha
  Plant response rating (0 to 10 scale), Bedstraw: 9
bedstraw; Rate 200 g/ha, POSTEMERGENCE
  Plant response rating, Bedstraw: 9
barley; POSTEMERGENCE, Rate 50 g/ha
  Plant response rating, Barley: 2
barley; PREEMERGENCE, Rate 50 g/ha
  Plant response rating, Barley: 0
barley; PREEMERGENCE, Rate 200 g/ha
  Plant response rating (0 to 10 scale), Barley: 0
barley; Rate 200 g/ha, POSTEMERGENCE
  Plant response rating, Barley: 3
cheatgrass; POSTEMERGENCE, Rate 50 g/ha
  Plant response rating, Cheatgrass: 2
cheatgrass; PREEMERGENCE, Rate 50 g/ha
  Plant response rating, Cheatgrass: 2
cheatgrass; PREEMERGENCE, Rate 200 g/ha
  Plant response rating (0 to 10 scale), Cheatgrass: 6
cheatgrass; Rate 200 g/ha, POSTEMERGENCE
  Plant response rating, Cheatgrass: 3
cotton; POSTEMERGENCE, Rate 50 g/ha
  Plant response rating, Cotton: 10
cotton; PREEMERGENCE, Rate 50 g/ha
  Plant response rating, Cotton: 0
cotton; PREEMERGENCE, Rate 200 g/ha
  Plant response rating (0 to 10 scale), Cotton: 1
cotton; Rate 200 g/ha, POSTEMERGENCE
  Plant response rating, Cotton: 10
Wild buckwheat; POSTEMERGENCE, Rate 50 g/ha
  Plant response rating, Wild buckwheat: 10
Wild buckwheat; PREEMERGENCE, Rate 50 g/ha
  Plant response rating, Wild buckwheat: 7
Wild buckwheat; PREEMERGENCE, Rate 200 g/ha
  Plant response rating (0 to 10 scale), Wild buckwheat: 9
Wild buckwheat; Rate 200 g/ha, POSTEMERGENCE
  Plant response rating, Wild buckwheat: 10
Wild oat; POSTEMERGENCE, Rate 50 g/ha
  Plant response rating, Wild oat: 2
Wild oat; PREEMERGENCE, Rate 50 g/ha
  Plant response rating, Wild oat: 2
Wild oat; PREEMERGENCE, Rate 200 g/ha
  Plant response rating (0 to 10 scale), Wild oat: 7
Wild oat; Rate 200 g/ha, POSTEMERGENCE
  Plant response rating, Wild oat: 4
rape; POSTEMERGENCE, Rate 50 g/ha
  Plant response rating, Rape: 5
rape; PREEMERGENCE, Rate 50 g/ha
  Plant response rating, Rape: 0
rape; PREEMERGENCE, Rate 200 g/ha
  Plant response rating (0 to 10 scale), Rape: 6
rape; Rate 200 g/ha, POSTEMERGENCE
  Plant response rating, Rape: 7
sorghum; POSTEMERGENCE, Rate 50 g/ha
  Plant response rating, Sorghum: 2
sorghum; PREEMERGENCE, Rate 50 g/ha
  Plant response rating, Sorghum: 0
sorghum; PREEMERGENCE, Rate 200 g/ha
  Plant response rating (0 to 10 scale), Sorghum: 2
sorghum; Rate 200 g/ha, POSTEMERGENCE
  Plant response rating, Sorghum: 4
crabgrass; POSTEMERGENCE, Rate 50 g/ha
  Plant response rating, Crabgrass: 3
crabgrass; PREEMERGENCE, Rate 50 g/ha
  Plant response rating, Crabgrass: 3
crabgrass; PREEMERGENCE, Rate 200 g/ha
  Plant response rating (0 to 10 scale), Crabgrass: 7
crabgrass; Rate 200 g/ha, POSTEMERGENCE
  Plant response rating, Crabgrass: 4
blackgrass; POSTEMERGENCE, Rate 50 g/ha
  Plant response rating, Blackgrass: 2
blackgrass; PREEMERGENCE, Rate 50 g/ha
  Plant response rating, Blackgrass: 0
blackgrass; PREEMERGENCE, Rate 200 g/ha
  Plant response rating (0 to 10 scale), Blackgrass: 4
blackgrass; Rate 200 g/ha, POSTEMERGENCE
  Plant response rating, Blackgrass: 3
Giant foxtail; POSTEMERGENCE, Rate 50 g/ha
  Plant response rating, Giant foxtail: 4
Giant foxtail; PREEMERGENCE, Rate 50 g/ha
  Plant response rating, Giant foxtail: 3
Giant foxtail; PREEMERGENCE, Rate 200 g/ha
  Plant response rating (0 to 10 scale), Giant foxtail: 6
Giant foxtail; Rate 200 g/ha, POSTEMERGENCE
  Plant response rating, Giant foxtail: 5
morningglory; POSTEMERGENCE, Rate 50 g/ha
  Plant response rating, Morningglory: 10
morningglory; PREEMERGENCE, Rate 50 g/ha
  Plant response rating, Morningglory: 0
morningglory; PREEMERGENCE, Rate 200 g/ha
  Plant response rating (0 to 10 scale), Morningglory: 2
morningglory; Rate 200 g/ha, POSTEMERGENCE
  Plant response rating, Morningglory: 10
corn; POSTEMERGENCE, Rate 50 g/ha
  Plant response rating, Corn: 3
corn; PREEMERGENCE, Rate 50 g/ha
  Plant response rating, Corn: 0
corn; PREEMERGENCE, Rate 200 g/ha
  Plant response rating (0 to 10 scale), Corn: 3
corn; Rate 200 g/ha, POSTEMERGENCE
  Plant response rating, Corn: 4
rice; POSTEMERGENCE, Rate 50 g/ha
  Plant response rating, Rice: 4
rice; PREEMERGENCE, Rate 50 g/ha
  Plant response rating, Rice: 0
rice; PREEMERGENCE, Rate 200 g/ha
  Plant response rating (0 to 10 scale), Rice: 2
rice; Rate 200 g/ha, POSTEMERGENCE
  Plant response rating, Rice: 6
lambsquarters; POSTEMERGENCE, Rate 50 g/ha
  Plant response rating, Lambsquarter: 7
lambsquarters; PREEMERGENCE, Rate 50 g/ha
  Plant response rating, Lambsquarter: 10
lambsquarters; PREEMERGENCE, Rate 200 g/ha
  Plant response rating (0 to 10 scale), Lambsquarter: 10
lambsquarters; Rate 200 g/ha, POSTEMERGENCE
  Plant response rating, Lambsquarter: 9
velvetleaf; POSTEMERGENCE, Rate 50 g/ha
  Plant response rating, Velvetleaf: 10
velvetleaf; PREEMERGENCE, Rate 50 g/ha
  Plant response rating, Velvetleaf: 0
velvetleaf; PREEMERGENCE, Rate 200 g/ha
  Plant response rating (0 to 10 scale), Velvetleaf: 10
velvetleaf; Rate 200 g/ha, POSTEMERGENCE
  Plant response rating, Velvetleaf: 10
wheat; POSTEMERGENCE, Rate 50 g/ha
  Plant response rating, Wheat: 3
wheat; PREEMERGENCE, Rate 50 g/ha
  Plant response rating, Wheat: 0
wheat; PREEMERGENCE, Rate 200 g/ha
  Plant response rating (0 to 10 scale), Wheat: 2
wheat; Rate 200 g/ha, POSTEMERGENCE
  Plant response rating, Wheat: 4
barnyardgrass; POSTEMERGENCE, Rate 50 g/ha
  Plant response rating, Barnyardgrass: 6
barnyardgrass; PREEMERGENCE, Rate 50 g/ha
  Plant response rating, Barnyardgrass: 2
barnyardgrass; PREEMERGENCE, Rate 200 g/ha
  Plant response rating (0 to 10 scale), Barnyardgrass: 6
barnyardgrass; Rate 200 g/ha, POSTEMERGENCE
  Plant response rating, Barnyardgrass: 7
